Some results are limits rather than exact numbers.

The target of the first assay is T1, Mushroom tyrosinase (Agaricus bisporus, UniProt O42713+Q00024+C7FF04+C7FF05). The assay is described as follows: Inhibition of mushroom tyrosinase using L-DOPA as substrate preincubated for 10 mins followed by substrate addition by absorbance based analysis.
Take `Oc1ccc(Br)cc1/C=N/c1nnc(S)s1`: the half-inhibitory concentration (IC50) (in general, the concentration needed to halve the response being measured) was found to be 1970 nM.

Consider `Oc1ccccc1/C=N/c1nnc(S)s1`, for which the concentration for half-maximal inhibition (IC50) was 780 nM. Compared with the last compound, the IC50 is about 2.5-fold lower.

Take `Sc1nnc(/N=C/c2ccc(Cl)c(Cl)c2)s1`: the concentration for half-maximal inhibition (IC50) stood at 3620 nM. Against the preceding compound, the IC50 is about 4.6-fold higher.

As to `O=c1oc2ccccc2cc1C1=NN(c2nc(-c3ccc(Br)cc3)cs2)C(c2ccccc2O)C1` (stereo not given), the IC50 was 96 nM.

In the case of `COc1cc(/C=N/c2nnc(S)s2)cc(OC)c1`, the IC50 turned out to be 5350 nM.

In turn, `COc1ccccc1/C=N/c1nnc(S)s1` showed an IC50 of 730 nM. Against the preceding compound, the IC50 is about 7.3-fold lower.

On to `O=c1oc2ccccc2cc1C1=NN(c2nc(-c3ccc(Br)cc3)cs2)C(c2ccco2)C1` (stereo not given), for which the IC50 turned out to be 380 nM.

Consider `CC(C)(C)c1ccc(/C=N/c2nnc(S)s2)cc1`, for which the IC50 is 1400 nM.

In the case of `Oc1ccc(Cl)cc1/C=N/c1nnc(S)s1`, the IC50 was determined as 1710 nM.

`O=c1oc2ccccc2cc1C1=NN(c2nc(-c3ccc(Br)cc3)cs2)C(c2ccc(O)cc2)C1` (stereo not given) showed an IC50 of 230 nM.

`Sc1nnc(/N=C/c2cccc(Cl)c2)s1` gave an IC50 of 4750 nM.

Consider `O=c1oc2ccccc2cc1C1=NN(c2nc(-c3ccc(Br)cc3)cs2)C(c2ccc(Cl)cc2)C1` (stereo not given), for which the half-inhibitory concentration (IC50) stood at 460 nM.

Regarding `Fc1ccccc1/C=N/c1nnc(S)s1`, the half-inhibitory concentration (IC50) turned out to be 760 nM.

In the case of `COc1cccc(C2CC(c3cc4ccccc4oc3=O)=NN2c2nc(-c3ccc(Br)cc3)cs2)c1O` (stereo not given), the IC50 was found to be 37 nM.

The compound `CN(C)c1ccc(C2CC(c3cc4ccccc4oc3=O)=NN2c2nc(-c3ccc(Br)cc3)cs2)cc1` (stereo not given) showed a 50% inhibitory concentration (IC50) of 220 nM.

The compound `COc1cc(OC)c(/C=N/c2nnc(S)s2)c(OC)c1` registered a 50% inhibitory concentration (IC50) of 900 nM.

`Sc1nnc(/N=C/c2ccccc2)s1` yielded a 50% inhibitory concentration (IC50) of over 20000 nM.

In the case of `O=c1oc2ccccc2cc1C1=NN(c2nc(-c3ccc(Br)cc3)cs2)C(c2ccc(Br)cc2)C1` (stereo not given), the IC50 was 52 nM.

As for `O=c1oc2ccccc2cc1C1=NN(c2nc(-c3ccc(Br)cc3)cs2)C(c2cc([N+](=O)[O-])ccc2Cl)C1` (stereo not given), the IC50 was 28 nM.

`O=c1oc2ccccc2cc1C1=NN(c2nc(-c3ccc(Br)cc3)cs2)C(c2ccc([N+](=O)[O-])cc2)C1` (stereo not given) had a half-maximal inhibitory concentration (IC50) of 130 nM.

Compound `COc1cc(/C=N/c2nnc(S)s2)cc(OC)c1O` displayed an IC50 of 473 nM.

`CCn1c2ccccc2c2cc(C3CC(c4cc5ccccc5oc4=O)=NN3c3nc(-c4ccc(Br)cc4)cs3)ccc21` (stereo not given) registered a 50% inhibitory concentration (IC50) of 100 nM.

In turn, `O=c1oc2ccccc2cc1C1=NN(c2nc(-c3ccc(Br)cc3)cs2)C(C2=CC3C=CC=CC3N2)C1` (stereo not given) had an IC50 of 17 nM.

`O=c1oc2ccccc2cc1C1=NN(c2nc(-c3ccc(Br)cc3)cs2)C(c2cc([N+](=O)[O-])ccc2O)C1` (stereo not given) yielded an IC50 of 910 nM.

Consider `O=c1oc2ccccc2cc1C1=NN(c2nc(-c3ccc(Br)cc3)cs2)C(c2ccc(OCc3ccccc3)cc2)C1` (stereo not given), for which the IC50 is 970 nM. This IC50 and that of the compound before are within 1.5-fold of each other.

`S=c1[nH]nc(/N=C/c2ccc(Cl)cc2)s1` returned a half-inhibitory concentration (IC50) of 2460 nM.

`O=c1oc2ccccc2cc1C1=NN(c2nc(-c3ccc(Br)cc3)cs2)C(c2ccccc2)C1` (stereo not given): the IC50 was 260 nM.

Another assay addresses T1, Mushroom tyrosinase. Briefly: Inhibition of mushroom tyrosinase using L-DOPA as substrate preincubated for 10 mins followed by substrate addition and measured after 20 mins by absorbance based analysis.
With `Cc1ccccc1NC(=O)CSc1nnc(Cc2csc(N)n2)n1-c1ccccc1`, the half-inhibitory concentration (IC50) was determined as 15 nM.

For the compound `O=C1C=C(Cn2cc(COc3ccc([N+](=O)[O-])cc3)nn2)C(=O)C=C1O`, the IC50 came to 520 nM.

On to `O=C1OC(c2ccccc2Cl)=NC(=S)C1c1nn[nH]n1` (stereo not given), for which the half-inhibitory concentration (IC50) stood at 88 nM. This IC50 lies about 5.9-fold lower than the previous one.

`Nc1nc(Cc2nnc(SCC(=O)Nc3ccccc3)n2-c2ccccc2)cs1` showed an IC50 of 130 nM.

Turning to `COc1cc(OCc2cn(CC3=CC(=O)C(O)=CC3=O)nn2)cc(OC)c1OC`, the concentration for half-maximal inhibition (IC50) was determined as 870 nM.

In turn, `O=C1C=C(Cn2cc(COc3ccc(Br)cc3)nn2)C(=O)C=C1O` registered an IC50 of 6800 nM. Against the preceding compound, the IC50 is about 7.8-fold higher.

In turn, `O=C1C=C(Cn2cc(COc3cccc(F)c3)nn2)C(=O)C=C1O` returned an IC50 of 1070 nM.

The compound `O=C1OC(c2cc([N+](=O)[O-])cc([N+](=O)[O-])c2)=NC(=S)C1c1nn[nH]n1` (stereo not given) came in with a 50% inhibitory concentration (IC50) of 75 nM.

As for `Cc1ccc(C)c(NC(=O)CSc2nnc(Cc3csc(N)n3)n2-c2ccccc2)c1`, the IC50 was found to be 58 nM.

As to `O=C1C=C(Cn2cc(COc3ccc(Cl)cc3)nn2)C(=O)C=C1O`, the IC50 came out at 690 nM.

For the compound `Cc1ccc(C2=NC(=S)C(c3nn[nH]n3)C(=O)O2)cc1` (stereo not given), the concentration for half-maximal inhibition (IC50) was determined as 310 nM. This IC50 is about 2.2-fold lower than that of the compound before.

In turn, `O=C1C=C(Cn2cc(COc3ccc(Cl)cc3Cl)nn2)C(=O)C=C1O` had a half-inhibitory concentration (IC50) of 1120 nM.

Turning to `Cc1cc(C)cc(NC(=O)CSc2nnc(Cc3csc(N)n3)n2-c2ccccc2)c1`, the 50% inhibitory concentration (IC50) amounted to 240 nM.

As to `Cc1cccc(NC(=O)CSc2nnc(Cc3csc(N)n3)n2-c2ccccc2)c1C`, the concentration for half-maximal inhibition (IC50) was found to be 2010 nM.

Turning to `O=C1OC(c2ccc([N+](=O)[O-])cc2)=NC(=S)C1c1nn[nH]n1` (stereo not given), the IC50 is 81 nM.

For the compound `O=C1OC(c2cccc([N+](=O)[O-])c2)=NC(=S)C1C1N=NN=N1` (stereo not given), the IC50 turned out to be 60 nM.

Regarding `CC(=O)Nc1ccc(OCc2cn(CC3=CC(=O)C(O)=CC3=O)nn2)cc1`, the concentration for half-maximal inhibition (IC50) came to 2640 nM.

The compound `COc1cccc(OC)c1C1=NC(=S)C(c2nn[nH]n2)C(=O)O1` (stereo not given) gave an IC50 of 200 nM.

The compound `CCOc1ccc(NC(=O)CSc2nnc(Cc3csc(N)n3)n2-c2ccccc2)cc1` had a half-inhibitory concentration (IC50) of 170 nM.

Compound `CCc1cccc(C)c1NC(=O)CSc1nnc(Cc2csc(N)n2)n1-c1ccccc1` displayed an IC50 of 190 nM.

`Nc1nc(Cc2nnc(SCC(=O)NCCc3ccccc3)n2-c2ccccc2)cs1` showed an IC50 of 16 nM. Against the preceding compound, the IC50 is about 12-fold lower.

In turn, `N#Cc1ccc(OCc2cn(CC3=CC(=O)C(O)=CC3=O)nn2)cc1` showed a half-inhibitory concentration (IC50) of 6290 nM.

With `CCc1ccccc1NC(=O)CSc1nnc(Cc2csc(N)n2)n1-c1ccccc1`, the IC50 was determined as 65 nM.

With `O=C1C=C(Cn2cc(COc3cccc(Cl)c3)nn2)C(=O)C=C1O`, the IC50 was found to be 990 nM.

Take `O=C1OC(c2ccc(Cl)cc2Cl)=NC(=S)C1c1nn[nH]n1` (stereo not given): the concentration for half-maximal inhibition (IC50) was 47 nM.

For the compound `O=C1C=C(Cn2cc(COc3ccccc3)nn2)C(=O)C=C1O`, the IC50 was 1330 nM.

In turn, `Cc1cccc(C)c1NC(=O)CSc1nnc(Cc2csc(N)n2)n1-c1ccccc1` showed a half-maximal inhibitory concentration (IC50) of 51 nM. This IC50 lies about 26-fold lower than the previous one.

`Cc1ccc(NC(=O)CSc2nnc(Cc3csc(N)n3)n2-c2ccccc2)c(C)c1`: the IC50 stood at 54 nM. The IC50 values of the last two compounds are within 1.5-fold of each other.

With `COc1cc(OC)cc(OCc2cn(CC3=CC(=O)C(O)=CC3=O)nn2)c1`, the half-inhibitory concentration (IC50) was 740 nM.

Regarding `O=C1C=C(Cn2cc(COc3ccc(CO)cc3)nn2)C(=O)C=C1O`, the IC50 was 1320 nM.

In the case of `O=C1OC(c2ccc(Cl)cc2)=NC(=S)C1c1nn[nH]n1` (stereo not given), the half-inhibitory concentration (IC50) stood at 290 nM.

The compound `CCc1ccc(NC(=O)CSc2nnc(Cc3csc(N)n3)n2-c2ccccc2)cc1` gave a half-maximal inhibitory concentration (IC50) of 120 nM.

For the compound `O=C1OC(c2cccc(Cl)c2)=NC(=S)C1C1N=NN=N1` (stereo not given), the IC50 turned out to be 71 nM.

Compound `O=C1C=C(Cn2cc(COc3ccc(F)cc3)nn2)C(=O)C=C1O` came in with a 50% inhibitory concentration (IC50) of 880 nM.

In turn, `COc1ccc(C2=NC(=S)C(C3N=NN=N3)C(=O)O2)cc1` (stereo not given) gave an IC50 of 73 nM. Against the preceding compound, the IC50 is about 12-fold lower.

`COc1ccc(OCc2cn(CC3=CC(=O)C(O)=CC3=O)nn2)cc1` returned an IC50 of 1240 nM. This IC50 is about 17-fold higher than that of the compound before.

The compound `Nc1nc(Cc2nnc(SCC(=O)NCc3ccccc3)n2-c2ccccc2)cs1` showed a concentration for half-maximal inhibition (IC50) of 1010 nM.

As for `Cc1ccc(NC(=O)CSc2nnc(Cc3csc(N)n3)n2-c2ccccc2)cc1C`, the IC50 was 110 nM.

These data come from ChEMBL document CHEMBL5331042, “Azole inhibitors of mushroom and human tyrosinases: Current advances and prospects of drug development for melanogenic dermatological disorders” (Eur J Med Chem, 2022).
